According to US20150150909A1, “ANTI-GLYCATION METHODS AND COMPOSITIONS” (CORE INTELLECTUAL PROPERTIES HOLDINGS, LLC, priority 2007, published 2015):
Several values for one entry are separate records, joined by “and”; a condition that tells them apart may be missing. Equal values may be shown once.

Key:
[1] = system: Normal human dermal fibroblasts; assay: Type I collagen sandwich ELISA in fibroblast conditioned medium (Example 4); format: cell-based; conditions: positive control; 5 days; FIG. 3
Description: Normal human dermal fibroblasts (passage 7, lot #7F1254, Cambrex, Walkersville, Md.) were seeded in a 96-well plate (plate #431) in DMEM medium (high glucose) containing 5% fetal calf serum, and grown to late subconfluent stage. Aqueous solutions of mineral extract composition were prepared in sterile Type I water and added to cell cultures at 1/20 dilution. Water was the non-treated control and magnesium ascorbyl phosphate (MAP cat. #A8960, Sigma, St. Louis, Mo.) was the positive control. Cell culture conditioned media were harvested 5 days after the start of the experiment and tested for type I collagen by sandwich ELISA using affinity-purified antibodies, followed by streptavidin-avidin-HRP conjugate and ABTS, according to standard ELISA protocol (Dobak et al., 1994, Zhao et al, 2005).
The colorimetric signal proportional to collagen content was measured with the BioRad microplate spectrophotometer 3550-UV at 405 nm. See FIG. 3, Effect of mineral extract composition on type I collagen in HDF-conditioned medium.

[2] = system: adult human dermal fibroblasts (aHDF); assay: Type I collagen sandwich ELISA in aHDF conditioned medium (Example 9); format: cell-based; conditions: all concentrations tested (0.5%, 0.1%, 0.05%, 0.01% w:v); 72 h
Description: A mineral extract composition (TL), Lot #100-151106, ˜3% Solution, and a mogroside/mineral extract composition as taught herein (SS II), mogrosides of Luo Han Guo Extract (Luo HG, Lot #MOG01-060502), Erythritol (Eryt, Lot #07241BP952) and Xylitol (Xylit, Lot #H125T7G1) were tested in the assay. All test materials were kept at room temperature. […] Water was the non-treated control and magnesium ascorbyl phosphate (MAP cat. #A8960, Sigma, St. Louis, Mo.) was the positive control. Cell culture conditioned media were harvested 72 h after the start of the experiment and tested for type I collagen by sandwich ELISA using affinity-purified antibodies, followed by streptavidin-avidin-HRP conjugate and ABTS, according to standard ELISA protocol (Dobak et al., 1994, Zhao et al, 2005). The colorimetric signal proportional to collagen content was measured with the BioRad microplate spectrophotometer 3550-UV at 405 nm.

albumin [3] = assay: AGE formation in the albumin/glucose model system (Example 11); format: biochemical
Description: Mineral extract composition (TL, ˜3% Solution) and a mogroside/mineral extract composition (SS II), Luo Han Guo Extract (L, Lot #MOG01-060502), Erythritol (E, Lot #07J241BP952) and Xylitol (X, Lot #H125T7G1) were kept at room temperature. […] The positive inhibitor control was aminoguanindine hydrochloride (AG) at 1 mM, (Sigma 396494). Protein glycation was detected by the increase of non-tryptophan fluorescence (excitation at 360 nm, emission at 460 nm) using microplate fluorometer Cytofluor 2350 (Millipore), as previously described (Argirova and Argirov, 2003). The glycation value for each experimental point was obtained by subtracting the background reading (samples without glucose) and was expressed as % of control (water).

human dermal fibroblasts = assay: MTT mitochondrial metabolism assay (Example 10); format: cell-based
Excerpt: The objective of this Example was to test the effect of 4 samples: A mogroside/mineral extract composition (Labeled—1 in FIG. 6A), mineral extract composition (Labeled—2 in FIG. 6A), Sucralose liquid concentrate (Labeled—3 in FIG. 6A) and erythritol (Labeled—4 in FIG. 6A) on the mitochondrial metabolism I fibroblast populations, using MTT assay. MTT assay measures the activity of succinate dehydrogenase, a key enzyme in the respiratory electron transport chain in mitrochondria (Berridge & Tan, 1993).
Test materials-were mogroside/mineral extract composition as made above in Example 9, mineral extract composition (˜3% Solution), Sucralose Liquid Concentrate (25% Sucralose by weight)—lot #F2304B311LB and Erythritol (25% Aqueous Solution)—lot #RFA 2104-35, and were kept at room temperature. Materials were diluted in type I sterile water, filtered through a 0.22μ filter and assayed at final concentrations of 2.5%, 0.5% and 0.05% (v:v) on human dermal fibroblasts (Invitrogen) for 72 h in high glucose DMEM medium with 5% calf serum.
In order to measure mitochondrial metabolism in whole cell populations, at the end of the experiment, MTT (3-(4,5-dimethylthiazol-2-yl)-2,5-diphenyltetrazolium bromide, Sigma cat. #M 5655) was added to cell cultures and incubation was continued for an additional 2 hours. Culture media were then discarded and intracellular MTT reduction product formazan was solubilized in 90% isopropanol. The colorimetric signal proportional to the mitochondrial activity in the cell cultures was measured with the BioRad microplate spectrophotometer 3550-UV at 570 nm.

albumin [4] = assay: Albumin/glucose anti-glycation assay (Example 1); format: biochemical; conditions: 1 mM; positive control; FIG. 1
Description: Each reaction mixture contained 10 mg/ml albumin (Sigma) in PBS with 500 mM glucose (Sigma G8270) in PBS. The negative control was 10 mg/ml albumin without glucose. A negative control was used for each experimental point. The positive control was 10 mg/ml albumin with 500 mM glucose with 1 mM aminoguanidine hydrochloride (Sigma 396494).
Each mineral extract composition was diluted in type I sterile water to 10 mg/ml sterilized by 0.22 micron filtration and incubated at dilutions 100 ug/ml, 10 ug/ml, 1 ug/ml and 0.1 ug/ml with the reaction mixture with or without glucose for 11 days at 37° C. in the presence of sodium azide.
Protein glycation was detected by the increase of non-tryptophan fluorescence (excitation at 360 nm, emission at 460 nm) using microplate fluorometer Cytofluor 2350 (Millipore), as described (Argirova and Argirov, 2003). The glycation value for each experimental point was obtained by subtracting the background reading (samples without glucose).

[5] = system: Normal human dermal fibroblasts (NHDF); assay: AGE in extracellular matrix collagen of glucose-treated NHDF, anti-AGE antibody spot blot (Example 2); format: cell-based; conditions: 1 mg/ml; for Intensity (AU): single replicates, hydrochloride
Description: Normal human dermal fibroblasts (NHDF) were cultivated in conditions that allow the synthesis of high amounts of extracellular matrix (ECM). NHDF were grown to confluence in normal medium in adequate format. Vitamin C was added to the media to induce matrix synthesis/deposition Cells were treated, (or not treated for the negative control) by three concentrations of the mineral extract composition or by a reference compound for a positive control (aminoguanidine). All the conditions were performed in triplicate. An excess of glucose was added to the cells and the cells were incubated at 37° C. for 15 days. At the end of the time, ECM proteins (mainly collagen) were extracted and purified and a fraction of each sample was loaded onto nitrocellulose in reproducible spots. The introduction of AGEs in collagen was shown using an anti-AGE antibody and it was labeled using a peroxidase conjugate and chemiluminescent reaction (ECL). Relative signal qualification was performed using a chemiluminescense imager.

[6] = system: Clostridium collagenase IV; assay: Metalloproteinase (collagenase) activity, Enzcheck quenched fluorescent gelatin (Example 5); format: biochemical; conditions: 100 ug/ml; positive control
Description: Metalloproteinase (MP) (collagenase) activity was measured with Enzcheck kit from Molecular Probes (Invitrogen, IL) using quenched fluorescent gelatin and Clostridium collagenase IV, a generic metalloproteinase. Mineral extract composition, in dilutions of 500 ug/ml, 50 ug/ml and 5 ug/ml and 0.5 ug/ml, were incubated in the presence of collagenase substrate-quenched fluorescin-linked gelatin and in the presence of the proteolytic enzyme collagenase. Phenanthroline, a potent MP inhibitor was used as positive control at 100 ug/ml. The kinetics of the release of the digested, fluorescent gelatin were measured at excitation/emission wavelengths of 485/530 nm with Millipore Cytofluor 2350 microfluorometer.

[7] = system: human dermal fibroblasts from a donor; assay: MTT mitochondrial metabolism assay (Example 3); format: cell-based
Description: The objective of this assay was to test the effect of mineral extract compositions (6 lots) on the mitochondrial metabolism in a cell culture population, using MTT assay. MTT assay measures the activity of succinate dehydrogenase, a key enzyme in the respiratory electron transport chain is mitochondria (Berridge & Tan, 1993).
Mineral extract compositions were diluted in type I sterile water to 10 mg/ml, sterilized by 0.22 micron filtration and incubated at dilutions 500 ug/ml, 50 ug/ml and 5 ug/ml and 0.5 ug/ml with 2,500 human dermal fibroblasts from a donor (Cascade Biologics, lot #061215-901) per well for 72 h in high glucose DMEM medium with 2.5% calf serum.
For mitochondrial metabolism measurement, at the end of the experiment, MTT (3-(4,5-dimethylthiazol-2-yl)-2,5-diphhenyltetrazolium bromide, Sigma cat. #M 5655) was added to cell cultures and incubated for 2 h. Culture media were then discarded and intracellular MTT reduction product formazan was solubilized in 100% DMSO. The colorimetric signal proportional to the mitochondrial activity in the cell cultures was measured with the BioRad microplate spectrophotometer 3550-UV at 570 nm.
The mitochondrial metabolism was standardized with regard to cell numbers by establishing the ratio of the two corresponding signals.

[8] = 2.5%, 0.5% and 0.05% (v:v), 72 h, FIG. 6A

## O=C1O[C@H]([C@@H](O)CO)C([O-])=C1OP(=O)([O-])[O-].O=C1O[C@H]([C@@H](O)CO)C([O-])=C1OP(=O)([O-])[O-].[Mg+2].[Mg+2].[Mg+2] [MAP, magnesium ascorbyl phosphate]
[1]
  stimulation of collagen I: Strong stimulation

## OC[C@@H](O)[C@H](O)[C@@H](O)CO [Xylitol]
[2]
  collagen-stimulatory activity: no significant activity
Albumin [3]; all concentrations tested (0.5%, 0.1%, 0.05%, 0.01% w:v), FIG. 7
  glycation-inhibitory effect: no effect

## OC[C@@H](O)[C@@H](O)CO [Erythritol]
[2]
  collagen-stimulatory activity: no significant activity
Human dermal fibroblasts; [8]
  effect on mitochondrial metabolism (MTT): no activity
Albumin [3]; at lower concentrations
  glycation-inhibitory effect: moderate inhibitory effect

## Cl.N=C(N)NN [Aminoguanidine, aminoguanidine hydrochloride]
Albumin [4]
  inhibitory activity on albumin glycation: good inhibitory activity
[5]; First membrane
  % Control: 62%
  Average: 33454 AU
  Intensity (AU): 38328 AU and 37316 AU and 24719 AU
[5]; Membrane 2
  % Control: 64%
  Average: 38752 AU
  Intensity (AU): 38464 AU (2×) and 41333 AU (2×) and 36460 AU (2×)
Albumin [3]; 1 mM, positive inhibitor control
  glycation-inhibitory activity: strong glycation-inhibitory activity

## OC[C@H]1O[C@H](O[C@]2(CCl)O[C@H](CCl)[C@@H](O)[C@@H]2O)[C@H](O)[C@@H](O)[C@H]1Cl [Sucralose]
Human dermal fibroblasts; [8]
  effect on mitochondrial metabolism (MTT): inhibited cell metabolism

## c1cnc2c(c1)ccc1cccnc12 [phenanthroline, Phenanthroline]
[6]
  MP activity: totally inhibited

## bFGF: basic fibroblast growth factor, positive control
[7]; results not shown
  sensitivity of fibroblast mitochondrial metabolism: not sensitive
Human dermal fibroblasts; 15 nM, positive control
  effect on mitochondrial metabolism (MTT): metabolic stimulation

## CN(CC(=O)O)C(=N)N [creatine]
[7]; 500 ug/ml, 72 h
  stimulation of mitochondrial metabolism: 6.3%
